Each block holds one compound with its values, some of them ahead of it.
What was measured:
Type in all cases: biochemical
KLK1 = KLK1 (Homo sapiens, UniProt P06870); assay: Related protease inhibition: KLK1 (fluorogenic substrate at Km); settings: class symbols per Table 18
Protocol: (§1) In vitro inhibition of related proteases was determined using an IC50 assay based on standard literature methods (see e.g. Shori et al., Biochem. Pharmacol., 1992, 43, 1209; Bouckaert et al., European Journal of Medicinal Chemistry 110 (2016) 181). Human serine protease enzyme Plasma Kallikrein, KLK1, FXa, Plasmin, Thrombin and Trypsin were assayed for enzymatic activity using an appropriate fluorogenic substrate at Km concentration, FXIa at fixed substrate concentration of 100 μM and various concentrations of the test compound. Protease activity was measured by monitoring the accumulation of liberated fluorescence from the substrate over 5 min at 25° C. The linear rate of fluorescence increase per minute was expressed as percentage (%) activity. IC50 values were calculated as the concentration of inhibitor giving 50% inhibition of the uninhibited enzyme activity (100%).

Human Factor XIIa = biological target: T1, Human Factor XIIa (Homo sapiens, UniProt P00748); assay: Determination of FXIIa inhibition (fluorogenic substrate H-DPro-Phe-Arg-AFC, IC50 assay); settings: substrate at Km concentration, 25° C.; category scale; read-out: Human FXII IC50 (nm)
T1 construct: Proteolytic cleavage of FXII to heavy and light chains of FXIIa dramatically increases catalytic activity; purchased Enzyme Research Laboratories
T1 sequence (P00748 373-615 limits assumed): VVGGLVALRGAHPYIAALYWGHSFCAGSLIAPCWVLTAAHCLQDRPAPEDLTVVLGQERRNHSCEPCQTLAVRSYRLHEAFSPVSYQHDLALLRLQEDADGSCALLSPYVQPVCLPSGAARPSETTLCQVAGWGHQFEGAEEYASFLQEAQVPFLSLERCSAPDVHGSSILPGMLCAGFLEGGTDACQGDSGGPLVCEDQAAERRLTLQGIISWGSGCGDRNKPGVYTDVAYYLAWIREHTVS
T1 sequence (P00748 20-372 partner limits assumed): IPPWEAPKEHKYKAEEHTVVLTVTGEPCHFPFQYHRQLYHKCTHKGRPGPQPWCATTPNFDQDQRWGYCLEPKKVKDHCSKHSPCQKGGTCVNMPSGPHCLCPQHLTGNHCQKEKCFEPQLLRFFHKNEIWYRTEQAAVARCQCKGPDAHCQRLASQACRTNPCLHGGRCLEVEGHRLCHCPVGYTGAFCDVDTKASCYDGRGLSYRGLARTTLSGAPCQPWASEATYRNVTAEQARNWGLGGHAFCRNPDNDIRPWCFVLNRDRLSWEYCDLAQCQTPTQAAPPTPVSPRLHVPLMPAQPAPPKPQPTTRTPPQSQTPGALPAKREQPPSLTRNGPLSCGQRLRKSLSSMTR
Procedure, shortened: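 At substrate Km and 25° C., the rate of AFC release from H-DPro-Phe-Arg-AFC by human Factor XIIa was followed for 5 min across compound concentrations. Inhibition was derived as percent of uninhibited rate, giving IC50.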

Plasma Kallikrein = biological target: T2, Plasma Kallikrein (Homo sapiens, UniProt P03952); assay: Related protease inhibition: Plasma Kallikrein (fluorogenic substrate at Km); settings: class symbols per Table 18, read-out: IC50 (human PKal)
T2 construct: FXIIa converts plasma prekallikrein (PK) to plasma kallikrein (PKa)
T2 sequence (P03952 391-638 limits assumed): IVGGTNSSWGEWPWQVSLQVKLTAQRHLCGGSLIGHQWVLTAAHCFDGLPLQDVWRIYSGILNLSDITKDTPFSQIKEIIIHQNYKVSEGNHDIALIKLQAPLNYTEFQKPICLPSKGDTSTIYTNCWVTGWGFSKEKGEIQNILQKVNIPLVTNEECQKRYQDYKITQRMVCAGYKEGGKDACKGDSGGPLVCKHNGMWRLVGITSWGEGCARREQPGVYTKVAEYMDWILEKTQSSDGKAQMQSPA
T2 sequence (P03952 20-390 partner limits assumed): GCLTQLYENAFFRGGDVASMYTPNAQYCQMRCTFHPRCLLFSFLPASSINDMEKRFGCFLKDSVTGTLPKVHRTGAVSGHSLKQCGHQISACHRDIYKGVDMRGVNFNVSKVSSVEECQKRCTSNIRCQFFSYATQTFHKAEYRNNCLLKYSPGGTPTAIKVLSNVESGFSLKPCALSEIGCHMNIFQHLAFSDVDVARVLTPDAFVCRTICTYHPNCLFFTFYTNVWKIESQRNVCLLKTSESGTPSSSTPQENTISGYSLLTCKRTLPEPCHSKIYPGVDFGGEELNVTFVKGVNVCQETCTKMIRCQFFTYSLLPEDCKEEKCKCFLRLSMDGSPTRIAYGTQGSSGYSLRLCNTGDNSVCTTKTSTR
Protocol: as §1

KLK1, sequence (P06870 25-262): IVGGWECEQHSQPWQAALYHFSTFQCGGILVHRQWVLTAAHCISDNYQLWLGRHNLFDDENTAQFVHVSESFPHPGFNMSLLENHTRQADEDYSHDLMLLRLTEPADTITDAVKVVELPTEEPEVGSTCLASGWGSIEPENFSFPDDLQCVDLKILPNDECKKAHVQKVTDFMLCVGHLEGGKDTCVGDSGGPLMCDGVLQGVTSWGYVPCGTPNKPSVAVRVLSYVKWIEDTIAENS

SMILES: Cc1cc2nccn2cc1OCC12COC(CNc3cccc4c(N)nccc34)(C1)C2 [Example 6622, N5-((4-(((7-methylimidazo[1,2-a]pyridin-6-yl)oxy)methyl)-2-oxabicyclo[2.1.1]hexan-1-yl)methyl)isoquinoline-1,5-diamine]
IC50 (KLK1): 1 to 3 µM
IC50 (Human Factor XIIa): 0.01 to 0.1 µM

SMILES: Nc1nccc2c(NCC34CC(COc5ccc6ncc(C(F)(F)F)n6c5)(CO3)C4)cccc12 [Example 6627, N5-((4-(((3-(trifluoromethyl)imidazo[1,2-a]pyridin-6-yl)oxy)methyl)-2-oxabicyclo[2.1.1]hexan-1-yl)methyl)isoquinoline-1,5-diamine]
IC50 (KLK1): 3 to 10 µM
IC50 (Human Factor XIIa): 1 to 3 µM

SMILES: CN1Cc2ccc(OCC34COC(CNc5cccc6c(N)nccc56)(C3)C4)cc2C1=O [Example 6628, 6-((1-(((1-aminoisoquinolin-5-yl)amino)methyl)-2-oxabicyclo[2.1.1]hexan-4-yl)methoxy)-2-methylisoindolin-1-one]
IC50 (KLK1): 3 to 10 µM
IC50 (Human Factor XIIa): 0.1 to 0.3 µM

SMILES: Nc1nccc2c(OCC34CC(CNc5ccc6nccn6c5)(CO3)C4)cccc12 [Example 6619, 5-((4-((imidazo[1,2-a]pyridin-6-ylamino)methyl)-2-oxabicyclo[2.1.1]hexan-1-yl)methoxy)isoquinolin-1-amine]
IC50 (KLK1): 10 to 40 µM
IC50 (Human Factor XIIa): 0.3 to 1 µM

SMILES: Cc1c(OCC23COC(CNc4cccc5c(N)nccc45)(C2)C3)ccc2nccn12 [Example 6626, N5-((4-(((5-methylimidazo[1,2-a]pyridin-6-yl)oxy)methyl)-2-oxabicyclo[2.1.1]hexan-1-yl)methyl)isoquinoline-1,5-diamine]
IC50 (KLK1): 1 to 3 µM
IC50 (Human Factor XIIa): 0.01 to 0.1 µM

SMILES: Nc1nccc2c(OCC34CC(C(=O)N5CCn6ccnc6C5)(C3)C4)cccc12 [Example 1015, [3-[(1-aminoisoquinolin-5-yl)oxymethyl]-1-bicyclo[1.1.1]pentanyl]-(6,8-dihydro-5H-imidazo [1,2-a]pyrazin-7-yl)methanone]
IC50 (Human Factor XIIa): 10 to 40 µM
IC50 (Plasma Kallikrein): > 40 µM

SMILES: Nc1nccc2c(OCC34CC(COc5ccn6ccnc6c5)(C3)C4)cccc12 [Example 1013, 5-[[3-(Imidazo[1,2-a]pyridin-7-yloxymethyl)-1-bicyclo[1.1.1]pentanyl]methoxy]isoquinolin-1-amine]
IC50 (Human Factor XIIa): 0.3 to 1 µM
IC50 (Plasma Kallikrein): > 40 µM

SMILES: Nc1nccc2c(N3CCC4(CC(OCc5ccn6ccnc6c5)C4)C3)cccc12 (stereo not drawn) [Example 8804, 5-(cis*-2-(imidazo[1,2-a]pyridin-7-ylmethoxy)-6-azaspiro[3.4]octan-6-yl)isoquinolin-1-amine]
IC50 (Human Factor XIIa): 1 to 3 µM
IC50 (Plasma Kallikrein): > 40 µM

SMILES: Nc1nccc2c(N3CC4(CC(OCc5ccn6ccnc6c5)C4)C3)cccc12 [Example 8801, 5-(6-(imidazo[1,2-a]pyridin-7-ylmethoxy)-2-azaspiro[3.3]heptan-2-yl)isoquinolin-1-amine]
IC50 (Human Factor XIIa): 10 to 40 µM
IC50 (Plasma Kallikrein): > 40 µM

SMILES: Clc1cc2c(NCC34CC(COC5CCn6ccnc6C5)(C3)C4)ccnc2[nH]1 (centres unmarked) [Example 1130, 2-Chloro-N-[[3-(5,6,7,8-tetrahydroimidazo[1,2-a]pyridin-7-yloxymethyl)-1-bicyclo[1.1.1]pentanyl]methyl]-1H-pyrrolo[2,3-b]pyridin-4-amine]
IC50 (Human Factor XIIa): 0.3 to 1 µM
IC50 (Plasma Kallikrein): > 40 µM

SMILES: Nc1nccc2c(N3CCC4(CC(OCc5ccn6ccnc6c5)C4)C3)cccc12 (stereo not drawn) [Example 8805, 5-(trans*-2-(imidazo[1,2-a]pyridin-7-ylmethoxy)-6-azaspiro[3.4]octan-6-yl)isoquinolin-1-amine]
IC50 (Human Factor XIIa): 1 to 3 µM
IC50 (Plasma Kallikrein): > 40 µM

SMILES: Clc1cc2c(NCC34CC(COc5ccc6nccn6c5)(CO3)C4)ccnc2[nH]1 [Example 6611, 2-chloro-N-((4-((imidazo[1,2-a]pyridin-6-yloxy)methyl)-2-oxabicyclo[2.1.1]hexan-1-yl)methyl)-1H-pyrrolo[2,3-b]pyridin-4-amine]
IC50 (Human Factor XIIa): 1 to 3 µM
IC50 (Plasma Kallikrein): > 40 µM

SMILES: CC1(C)OC2(CNc3cccc4c(N)nccc34)CC1(COc1ccc3nccn3c1)C2 [Example 7703, N5-((4-((imidazo[1,2-a]pyridin-6-yloxy)methyl)-3,3-dimethyl-2-oxabicyclo[2.1.1]hexan-1-yl)methyl)isoquinoline-1,5-diamine]
IC50 (Human Factor XIIa): 0.1 to 0.3 µM
IC50 (Plasma Kallikrein): > 40 µM

SMILES: Nc1nccc2c(NCC34CC(COc5ccc6c(c5)NC(=O)C6)(C3)C4)cccc12 [Example 1113, 6-((3-(((1-aminoisoquinolin-5-yl)amino)methyl)bicyclo[1.1.1]pentan-1-yl)methoxy)indolin-2-one]
IC50 (Human Factor XIIa): 1 to 3 µM
IC50 (Plasma Kallikrein): > 40 µM

SMILES: Nc1nccc2c(NCC34CC(Cn5ccn6ccc(=O)cc56)(C3)C4)cccc12 [Example 1127, 1-((3-(((1-aminoisoquinolin-5-yl)amino)methyl)bicyclo[1.1.1]pentan-1-yl)methyl)imidazo[1,2-a]pyridin-7(1H)-one]
IC50 (Human Factor XIIa): 3 to 10 µM
IC50 (Plasma Kallikrein): > 40 µM

SMILES: CC1(C)OC2(COc3cccc4c(N)nccc34)CC1(COc1ccc3nccn3c1)C2 [Example 7704, 5-((4-((imidazo[1,2-a]pyridin-6-yloxy)methyl)-3,3-dimethyl-2-oxabicyclo[2.1.1]hexan-1-yl)methoxy)isoquinolin-1-amine]
IC50 (Human Factor XIIa): 0.3 to 1 µM
IC50 (Plasma Kallikrein): > 40 µM

SMILES: Nc1nccc2c(NCC34CC(COc5ccc6nccn6n5)(CO3)C4)cccc12 [Example 6612, N5-((4-((imidazo[1,2-b]pyridazin-6-yloxy)methyl)-2-oxabicyclo[2.1.1]hexan-1-yl)methyl)isoquinoline-1,5-diamine]
IC50 (Human Factor XIIa): 1 to 3 µM
IC50 (Plasma Kallikrein): > 40 µM

The remaining lines, values ahead:

IC50 (KLK1): 3 to 10 µM
IC50 (Human Factor XIIa): 0.1 to 0.3 µM
SMILES: Nc1nccc2c(NCC34CC(COc5cc(Cl)c6nccn6c5)(CCO3)C4)cccc12 [Example 10924, N5-((5-(((8-chloroimidazo[1,2-a]pyridin-6-yl)oxy)methyl)-2-oxabicyclo[3.1.1]heptan-1-yl)methyl)isoquinoline-1,5-diamine]

IC50 (KLK1): 10 to 40 µM
IC50 (Human Factor XIIa): 40 to 100 µM
SMILES: Clc1ccc2c(NCC34CC(COc5ccn6ccnc6c5)(CCO3)C4)ccnc2c1 [Example 10921, 7-chloro-N-((5-((imidazo[1,2-a]pyridin-7-yloxy)methyl)-2-oxabicyclo[3.1.1]heptan-1-yl)methyl)quinolin-4-amine]

IC50 (KLK1): 0.01 to 0.1 µM
IC50 (Human Factor XIIa): 0.1 to 0.3 µM
SMILES: Cn1ccc(OCC23CN(C(=O)OCc4ccccc4)C(CNc4ccc5c(N)nccc5c4)(C2)C3)cc1=O [Example 12010, benzyl 1-(((1-aminoisoquinolin-6-yl)amino)methyl)-4-(((1-methyl-2-oxo-1,2-dihydropyridin-4-yl)oxy)methyl)-2-azabicyclo[2.1.1]hexane-2-carboxylate]

IC50 (KLK1): 0.3 to 1 µM
IC50 (Human Factor XIIa): 0.1 to 0.3 µM
SMILES: Cc1c(OCC23CCOC(CNc4cccc5c(N)nccc45)(C2)C3)ccn2ccnc12 [Example 10923, N5-((5-(((8-methylimidazo[1,2-a]pyridin-7-yl)oxy)methyl)-2-oxabicyclo[3.1.1]heptan-1-yl)methyl)isoquinoline-1,5-diamine]

IC50 (KLK1): 0.3 to 1 µM
IC50 (Human Factor XIIa): 0.3 to 1 µM
SMILES: Nc1ncc(Cl)c2cc(NCC34CC(COc5ccn6ccnc6c5)(CCO3)C4)ccc12 [Example 10922, 4-chloro-N6-((5-((imidazo[1,2-a]pyridin-7-yloxy)methyl)-2-oxabicyclo[3.1.1]heptan-1-yl)methyl)isoquinoline-1,6-diamine]

IC50 (Human Factor XIIa): 0.3 to 1 µM
IC50 (Plasma Kallikrein): > 40 µM
SMILES: Nc1nccc2c(NCC34CC(COC5CCc6nccn6C5)(CCO3)C4)cccc12 (centres unmarked) [Example 10908, N5-((5-(((5,6,7,8-tetrahydroimidazo[1,2-a]pyridin-6-yl)oxy)methyl)-2-oxabicyclo[3.1.1]heptan-1-yl)methyl)isoquinoline-1,5-diamine]

IC50 (Human Factor XIIa): 10 to 40 µM
IC50 (Plasma Kallikrein): > 40 µM
SMILES: Nc1nccc2c(NCC34CC(COc5ncccn5)(CCO3)C4)cccc12 [Example 10912, N5-((5-((pyrimidin-2-yloxy)methyl)-2-oxabicyclo[3.1.1]heptan-1-yl)methyl)isoquinoline-1,5-diamine]

IC50 (Human Factor XIIa): 10 to 40 µM
IC50 (Plasma Kallikrein): > 40 µM
SMILES: Nc1nccc2c(N3CC4(CCC4OCc4ccn5ccnc5c4)C3)cccc12 (single isomer, unassigned) [Example 9002, (R*)-5-(5-(imidazo[1,2-a]pyridin-7-ylmethoxy)-2-azaspiro[3.3]heptan-2-yl)isoquinolin-1-amine]

Source: US20240327412A1, “FACTOR XIIA INHIBITORS” (KALVISTA PHARMACEUTICALS LIMITED, priority 2021, published 2024)
